One substance from patent EP0531640B1, “Antibiotic LL-E19020 Gamma” (F. HOFFMANN-LA ROCHE AG, priority 1991, dated 1993) can be followed below.

This test is described as follows: Growth of chickens and efficiency of feed utilization. Type of test: in vivo, Peterson X Arbor Acres chicks. As to conditions: chicks, 200 ppm in the diet (positive control), day 1 to day 14. How it is done: In this test, one day old Peterson X Arbor Acres chicks are sorted into equal weight groups of 5 males and 5 females per cage. Cages are randomized to treatment groups with six replicates per treatment. The test compound is evaluated 25 ppm in the diet against chicks receiving a non-medicated diet and a diet containing 200 ppm of penicillin as a positive control.
The cages are weighed at day 1 and at day 14 and feed consumption is measured on weigh days. Feed and water are offered ad libitum and lighting and supplemental heat are provided continuously.
The poultry diet employed in the test is as follows:
The vitamin-amino acid premix in the above feed composition is prepared from the following formulation. The expressions of quantity relate to units per kilogram of the finished feed composition.

Regarding Penicillin [reference compound], the “Weight Gain” value was 344 g; the “Weight Gain, % improvement over control” value was 7.2%; the feed conversion worked out at 1.317; the “feed conversion, % improvement over control” value is recorded as 0.4%.
